Experimental data taken from patent US7867979B2, “Drug composition for treating 2 type diabetes and diabetic chronicity complications” (Hainan Deze Drug Research Co., Ltd., priority 2006, dated 2011).

Experiments:
Format in all cases: in vivo, Goto-Kakizaki rats (GK)
diabetic GK rats = assay: Blood glucose and lipid in GK rats; settings: different ratio experiment; GK rats, high fat diet, oral daily 12 weeks, total 20 mg/kg per Table 3
Text: The GK (Goto-Kakizaki) rat is the spontaneous model of diabetes, the pathogenesis of GK rat is very similar to the pathogenesis of type 2 diabetes. After diabetes attack, hyperglycemia and insulin secretion weakened emerge rapidly, the latter diseases may be complicated by retinopathy, micro-vascular disease, neuropathy, nephropathy in GK rat. The GK rats have been widely used in type 2 diabetes study, so we choose GK rat as the animal model of the following experiment. […] Then they can be mixed or diluted in accordance with the dose and the ratio. 1.3 Goto-Kakizaki rats (GK) (4 months age, ♀♂) and Wistar rats (SPF level, ♀♂) were purchased from Shanghai SLAC laboratory animal Co., Ltd. In addition to the normal rats, the other rats were fed with high fat diet (20% protein and 3.5% cholesterol). After the rats was feeding adaptation for one week, The GK rats which the blood glucose level was more than 11.1 mmol/L were selected, and then divided into the following groups random: GK rats control group (n=10); mangiferin groups (10, 30, 200 mg/kg, each group 10 rats); berberine groups (10, 20, 150 mg/kg, each group 10 rats); composition group 1[[mangiferin (10 mg/kg)+berberine (10 mg/kg)], 10 rats]; composition group 2[[mangiferin (200 mg/kg)+berberine (150 mg/kg)], 10 rats]. Wistar rats are normal control group (10 rats). GK rats control group and Wistar rats group were given saline. The other groups were given test drugs. Test samples were administrated orally at the same time every day for 12 weeks. 3.1 Blood Glucose and lipid: The blood specimens were taken at the end of the test. Plasma glucose (GLU), triglycerides (TG), total cholesterol (TC) were determined by HITACHI7080 automatic biochemistry analyzer. […] The results have been calculated as mean±SD ( x±SD) and the comparisons of the data have been done by t-test. […] Mangiferin and berberine are prepared in accordance with the method of preparation of example 1 and 2. Then they can be mixed in accordance with the dose and the ratio such as table 3. 1.2 Animal: Goto-Kakizaki rats (GK) (4 months age, ♀♂) and Wistar rats (SPF level, ♀♂) were purchased from Shanghai SLAC laboratory animal Co., Ltd. In addition to the normal rats, the other rats were fed with high fat diet (20% protein and 3.5% cholesterol). After the rats was feeding adaptation for one week, GK rats that the blood glucose level of the GK rats was more than 11.1 mmol/L were selected, and then random divided into the following groups as follows (Table 3): There are ten rats in every group. GK rats control group and wistar rats group were given saline. The other groups were given test drugs. Test samples were administrated orally at the same time every day for 12 weeks. The measurements are as same as the above experiment.

aldose reductase (AR) = biological target: T1, aldose reductase (AR) (Rattus norvegicus, UniProt P07943); assay: Activity of aldose reductase (AR) of lens in GK rats; settings: different ratio experiment, oral daily 12 weeks, specific activity, in U/mg protein; for AR activity of lens NADH (0.1 mmol/L): total 20 mg/kg per Table 3, NADH 0.1 mmol/L system; for AR activity of lens NADPH (0.1 mmol/L): total 20 mg/kg per Table 3, NADPH 0.1 mmol/L system
T1 construct: from tissue; host or cells: lens of GK (Goto-Kakizaki) and Wistar rats
Description: GK rats control group (n=10); mangiferin groups (10, 30, 200 mg/kg, each group 10 rats); berberine groups (10, 20, 150 mg/kg, each group 10 rats); composition group 1[[mangiferin (10 mg/kg)+berberine (10 mg/kg)], 10 rats]; composition group 2[[mangiferin (200 mg/kg)+berberine (150 mg/kg)], 10 rats]. Wistar rats are normal control group (10 rats). GK rats control group and Wistar rats group were given saline. The other groups were given test drugs. Test samples were administrated orally at the same time every day for 12 weeks. […] At the End of the experiment, the left side lens of rats was taken, then these lenses were added into glycerol and put into refrigerator (−80° C.□) to preserve to determine AR activity. The determination method of AR activity refer to Maragoudakis's method and change slightly, that is: the activity of enzyme is indicated by the record of the absorbance of NADPH in 340 nm decline IOU. […] The second reaction system is 0.1 mmol/L NADH instead of NADPH, the rest of the reagent is same as one of the first response system. The activity of enzyme and the protein content in tissue homogenate are determined at the same time. a unit enzyme activity is indicated by the quantity of the enzyme that produce 1 μmol NADP^+ (or NDA^+) in one minute. […] The results have been calculated as mean±SD ( x±SD) and the comparisons of the data have been done by t-test. There are ten rats in every group. GK rats control group and wistar rats group were given saline. The other groups were given test drugs. Test samples were administrated orally at the same time every day for 12 weeks. The measurements are as same as the above experiment.

[1] = test system: Superoxidedismutase (SOD); assay: Superoxidedismutase (SOD) in kidney tissue homogenate of GK rats; settings: different ratio experiment, oral daily 12 weeks, total 20 mg/kg per Table 3
Description: GK rats control group (n=10); mangiferin groups (10, 30, 200 mg/kg, each group 10 rats); berberine groups (10, 20, 150 mg/kg, each group 10 rats); composition group 1[[mangiferin (10 mg/kg)+berberine (10 mg/kg)], 10 rats]; composition group 2[[mangiferin (200 mg/kg)+berberine (150 mg/kg)], 10 rats]. Wistar rats are normal control group (10 rats). GK rats control group and Wistar rats group were given saline. The other groups were given test drugs. Test samples were administrated orally at the same time every day for 12 weeks. 3.3.1 Preparation of tissue homogenate: Rats were killed by femoral artery bloodletting after administration of the rats for 12-weeks. Kidney tissue of the rats were taken, the blood of kidney tissue were washed with cooling saline (4° C.), then the remnant water was absorbed with filter paper, the kidney tissue was weighed. Per gram kidney tissue was added into 10 ml saline, which was put in homogenized machine (10,000 r/min, 10 seconds, 3rd), 10% tissue homogenate was prepared, the tissue homogenate was centrifuged (4000 r/min) for 10 minutes to get supernatant, the supernatant was saved in −20° C. for determination. […] SOD is determined by Xanthine Oxidase calorimetric analysis, the test box was bought from Nanjing Jiancheng Bioengineering Research Institute. […] The results have been calculated as mean±SD ( x±SD) and the comparisons of the data have been done by t-test. There are ten rats in every group. GK rats control group and wistar rats group were given saline. The other groups were given test drugs. Test samples were administrated orally at the same time every day for 12 weeks. The measurements are as same as the above experiment.

Propyl dialdehyde (MDA) = Propyl dialdehyde (MDA) in kidney tissue homogenate of GK rats; settings: different ratio experiment, oral daily 12 weeks, total 20 mg/kg per Table 3
Description: GK rats control group (n=10); mangiferin groups (10, 30, 200 mg/kg, each group 10 rats); berberine groups (10, 20, 150 mg/kg, each group 10 rats); composition group 1[[mangiferin (10 mg/kg)+berberine (10 mg/kg)], 10 rats]; composition group 2[[mangiferin (200 mg/kg)+berberine (150 mg/kg)], 10 rats]. Wistar rats are normal control group (10 rats). GK rats control group and Wistar rats group were given saline. The other groups were given test drugs. Test samples were administrated orally at the same time every day for 12 weeks. 3.3.1 Preparation of tissue homogenate: Rats were killed by femoral artery bloodletting after administration of the rats for 12-weeks. Kidney tissue of the rats were taken, the blood of kidney tissue were washed with cooling saline (4° C.), then the remnant water was absorbed with filter paper, the kidney tissue was weighed. Per gram kidney tissue was added into 10 ml saline, which was put in homogenized machine (10,000 r/min, 10 seconds, 3rd), 10% tissue homogenate was prepared, the tissue homogenate was centrifuged (4000 r/min) for 10 minutes to get supernatant, the supernatant was saved in −20° C. for determination. 3.3.2.2 Propyl dialdehyde (MDA): MDA is determined by TBA, the test box was bought from Nanjing Jiancheng Bioengineering Research Institute. […] The results have been calculated as mean±SD ( x±SD) and the comparisons of the data have been done by t-test. There are ten rats in every group. GK rats control group and wistar rats group were given saline. The other groups were given test drugs. Test samples were administrated orally at the same time every day for 12 weeks. The measurements are as same as the above experiment.

SMILES	GLU (diabetic GK rats)	Lipid TC (diabetic GK rats)	Lipid TG (diabetic GK rats)	AR activity of lens NADH (0.1 mmol/L) (aldose reductase (AR))	AR activity of lens NADPH (0.1 mmol/L) (aldose reductase (AR))	Measurements about oxidation SOD [1]	Measurements about oxidation MDA (Propyl dialdehyde (MDA))
O=c1c2cc(O)c(O)cc2oc2cc(O)c(C3OC(CO)C(O)C(O)C3O)c(O)c12 (centres unmarked) [Composition A]	14.11 ± 2.03 mmol/L	3.26 ± 0.26 mmol/L	2.79 ± 0.30 mmol/L	1.97 ± 0.46	3.11 ± 0.56	168.26 ± 13.50 U/mg pro	3.43 ± 0.89 nmol/mg pro
COc1ccc2cc3[n+](cc2c1OC)CCc1cc2c(cc1-3)OCO2 [Composition H]	12.34 ± 2.09 mmol/L	3.33 ± 0.26 mmol/L	2.91 ± 0.09 mmol/L	1.39 ± 0.53	2.48 ± 0.58	171.10 ± 13.81 U/mg pro	3.52 ± 0.77 nmol/mg pro
